# Experimental data: PubChem BioAssay AID1963430 (Molecular Pharmacology Branch, DTP, NCI, 2024)
# Where “and” joins values, the source holds several entries; their conditions need not be identical. Equal entries are not always repeated.
# Tested on: 521955-158-R2-J5-PDC complex spheroid growth, % test/control
# Experiment: Anticancer human tumor 521955-158-R2-J5-PDC patient-derived pancreatic carcinoma cell line growth inhibition [Asc]
# Settings: for viability, T/C: stronger effect = lower value
# Method: Multicellular complex tumor spheroid response to apoptosis pathway targeting inhibitors Alrizomadlin, Pelcitoclax, and Dasminapant in combination with a variety of drugs and investigational agents in selected tumor cell lines
# The MDM2 inhibitor alrizomadlin, the Bcl-2/Bcl-xL inhibitor pelcitoclax, and the IAPs inhibitor dasminapant were evaluated both individually and in combination with standard of care and investigational anticancer small molecules within a complex spheroid model of solid tumors. . Complex spheroids include a stromal component modeled by human endothelial cells (HUVEC) and fibroblasts modeled by human mesenchymal stem cells (MSCs). The concentration ranges selected for each drug and investigational agent were based upon clinically achievable concentrations if the clinical Cmax of the agent was known.
# Compounds. The drugs and investigational agents: alrizomadlin (APG-115; NSC831270), pelcitoclax (APG-1252; NSC835773), dasminapant (APG-1387;NSC834197), TAK-243 (NSC785004), copanlisib (NSC809693), olaparib (NSC753686), talazoparib (NSC767125), cobimetinib (NSC 768068), eltanexor (KPT-8602, NSC 794443), abemaciclib (NSC 768073), sotorasib (NSC818433), adagrasib (NSC 831453), MRTX-1133 (NSC 836407), Iadademestat (ORY1001, NSC 806812), and RMC-4630 (NSC839698), were obtained from the NCI Developmental Therapeutics Program Chemical Repository. The FDA-approved anticancer drug set is available from the Developmental Therapeutics Program at https://dtp.cancer.gov/organization/dscb/obtaining/available plates.htm. […] The stock solutions were prepared in dimethyl sulfoxide (DMSO, Sigma-Aldrich, St. Louis, MO, cat. D2650) at 800-fold the tested concentration and stored at -70 degrees C prior to their use. All drugs and investigational agents were tested over a range starting from a high concentration at or near the clinical Cmax and decreasing in half-log increments. If the clinical Cmax for an agent had not been determined, the highest concentration tested was 10 microM.
# The patient-derived cancer (PDC) cell lines include five colon adenocarcinomas: 186277-243-T-J2-PDC, 616215-338-R-J1-PDC, 439559-082-T-J2-PDC, 463943-066-T-J2-PDC, and 519858-162-T-J1-PDC; three pancreatic carcinomas: 323965-272-R-J2-PDC, 521955-158-R6-J3-PDC, and 521955-158-R2-J5-PDC; two uterine sarcomas: 327498-152-R-J2-PDC and 993429-296-R-J1-PDC; two rhabdomyosarcomas: 755483-174-R-J1-PDC and 772245-204-R-J1-PDC; two soft tissue sarcomas: 126254-015-R-J1-PDC and 494315-158-R-J1-PDC; two malignant fibrous histiocytomas: 317291-083-R-J1-PDC and 596521-263-R-J1-PDC; two breast carcinomas: 171881-019-R-J1-PDC and 885512-296-R-J2-PDC; and one ovarian carcinoma: 6556581-035-R-J-PDC were obtained from the NCI PDMR, (https://pdmr.cancer.gov). The established cell lines HSSY-2 synovial sarcoma (RRID:CVCL 8719), SYO-1 synovial sarcoma (RRID:CVCL_7146), MPNST malignant peripheral neural sheath tumor were obtained from the Sloan Kettering Institute. The following established cell lines were purchased from the American Type Culture Collection (ATCC, Manassas, VA), Sor the received from the NCI repository:, PANC-1 pancreatic carcinoma (CRL-1469, RRID:CVCL_0480), OVCAR-5 ovarian carcinoma (RRID:CVCL_1628), OVCAR-8 ovarian carcinoma (RRID:CVCL_1629), , MCF-7 breast carcinoma (CRL-12584, RRID:CVCL_0031), MDA-MB-231 breast carcinoma (CRL-12532, RRID:CVCL_0062), NCI-H1876 small cell lung carcinoma (CRL-5902, RRID:CVCL_1503), NCI-H510A small cell lung carcinoma (HTB-184, RRID:CVCL_1565), NCI-H1417 (CRL-5869, RRID:CVCL_1469), and NCI-H196 small cell lung carcinoma (CRL-5823, RRID:CVCL_1509). Dr. Peter Houghton (Greehey Children's Cancer Research Institute, University of Texas Health Science Center, San Antonio, TX) provided Rh-18 rhabdomyosarcoma (RRID:CVCL_1659). Pooled donor human umbilical vein endothelial cells (HUVEC, Lonza, cat. CC-2519) and human mesenchymal stem cells (hMSC, Lonza, cat. PT-2501) were purchased from Lonza (Walkersville, MD).
# Cell Culture. […]
# 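Further: spheroids exposed to agents for 7 days before readout.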
# 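Wherever viability, T/C is given: 100% = DMSO vehicle control viability.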
smiles,measurement,setting,value
C=CC(=O)N1CCN(c2nc(=O)n(-c3c(C)ccnc3C(C)C)c3nc(-c4c(O)cccc4F)c(F)cc23)C(C)C1 (configuration not stated),"viability, T/C",compound 0.0316 µM,87.7% and 88.9% and 88.2%
same,"viability, T/C",compound 0.1 µM,72.1% and 90.3% and 87.8%
same,"viability, T/C",compound 0.316 µM,76.3% and 92.3% and 90.2%
same,"viability, T/C",compound 1 µM,108% and 87.7% and 113%
same,"viability, T/C",compound 3.16 µM,102% and 121% and 112%
same,"viability, T/C",compound 10 µM,101% (2×) and 95.5%
same,IC50,curve of compound,> 10 µM
C=CC(=O)N1CCN(c2nc(=O)n(-c3c(C)ccnc3C(C)C)c3nc(-c4c(O)cccc4F)c(F)cc23)C(C)C1 (configuration not stated) + Cc1c(S(C)(=O)=O)c(-c2cc(F)cc(N3CCN(c4ccc(NS(=O)(=O)c5ccc(NC(CCN6CCC(C(=O)OCCCP(=O)(O)O)CC6)CSc6ccccc6)c(S(=O)(=O)C(F)(F)F)c5)cc4)CC3)c2)c(-c2ccc(Cl)cc2)n1C(C)C,IC50,"curve of first compound, second compound 0.1 µM",> 10 µM
same,IC50,"curve of first compound, second compound 0.316 µM",> 10 µM
same,IC50,"curve of first compound, second compound 1 µM",> 10 µM
same,IC50,"curve of first compound, second compound 3.16 µM",> 10 µM
same,IC50,"curve of first compound, second compound 10 µM",> 10 µM
same,"viability, T/C","second compound 0.1 µM, first compound 0.0316 µM",77.7%
same,"viability, T/C","second compound 0.1 µM, first compound 0.1 µM",87.5%
same,"viability, T/C","second compound 0.1 µM, first compound 0.316 µM",64.9%
same,"viability, T/C","second compound 0.1 µM, first compound 1 µM",94.5%
same,"viability, T/C","second compound 0.1 µM, first compound 3.16 µM",107%
same,"viability, T/C","second compound 0.1 µM, first compound 10 µM",77.5%
same,"viability, T/C","second compound 0.316 µM, first compound 0.0316 µM",80.6%
same,"viability, T/C","second compound 0.316 µM, first compound 0.1 µM",72.2%
same,"viability, T/C","second compound 0.316 µM, first compound 0.316 µM",84.8%
same,"viability, T/C","second compound 0.316 µM, first compound 1 µM",112%
same,"viability, T/C","second compound 0.316 µM, first compound 3.16 µM",111%
same,"viability, T/C","second compound 0.316 µM, first compound 10 µM",83.7%
same,"viability, T/C","second compound 1 µM, first compound 0.0316 µM",69.5%
same,"viability, T/C","second compound 1 µM, first compound 0.1 µM",72.3%
same,"viability, T/C","second compound 1 µM, first compound 0.316 µM",85.8%
same,"viability, T/C","second compound 1 µM, first compound 1 µM",95.7%
same,"viability, T/C","second compound 1 µM, first compound 3.16 µM",71.8%
same,"viability, T/C","second compound 1 µM, first compound 10 µM",81.7%
same,"viability, T/C","second compound 3.16 µM, first compound 0.0316 µM",73.7%
same,"viability, T/C","second compound 3.16 µM, first compound 0.1 µM",97.8%
same,"viability, T/C","second compound 3.16 µM, first compound 0.316 µM",83.5%
same,"viability, T/C","second compound 3.16 µM, first compound 1 µM",86.5%
same,"viability, T/C","second compound 3.16 µM, first compound 3.16 µM",103%
same,"viability, T/C","second compound 3.16 µM, first compound 10 µM",80.3%
same,"viability, T/C","second compound 10 µM, first compound 0.0316 µM",151%
same,"viability, T/C","second compound 10 µM, first compound 0.1 µM",176%
same,"viability, T/C","second compound 10 µM, first compound 0.316 µM",167%
same,"viability, T/C","second compound 10 µM, first compound 1 µM",112%
same,"viability, T/C","second compound 10 µM, first compound 3.16 µM",123%
same,"viability, T/C","second compound 10 µM, first compound 10 µM",98.4%
